Reference: article PMC5762338, “A novel orally available Syk/Src/Jak2 inhibitor, SKLB-850, showed potent anti-tumor activities in B cell lymphoma (BCL) models” (Oncotarget, 2017)
pIC50: −log10 of the molar value.

How the values were obtained:
Ramos cells = assay: Chemotaxis assay toward CXCL12 (transwell); assay type: cell-based, Human; conditions: CXCL12 200ng/mL, 12 hours
Procedure: (§1) And BCL cells could migrate toward the chemokine CXCL12 upon activation of its receptor CD184 [27].
Chemotaxis assay was performed as previously described. Briefly, 1×10^6 Ramos cells were cultured in RPMI 1640 containing 0.5% bovine serum albumin and were pre-incubated for 30 minutes with SKLB-850, R788 or DMSO, and then they were added to the inserts of transwell chambers (5μm poresize; Corning). Inserts were then transferred into wells containing CXCL12 (200ng/mL). After 12 hours, cell count was determined for the upper and lower well in duplicates using a flow cytometer (Novocyte Technologies, China). Chemotaxis indices were calculated as: [number of cells in the lower chamber×100] / [number of cells in the lower and upper chambers]. The chemotaxis index with SKLB-850 was calculated as percentage of the DMSO index.

PKCα = target: T1, PKCα (Homo sapiens, UniProt P17252); assay: Kinase inhibition, 33P radiometric assay (Millipore Kinase Profiler); assay type: biochemical
T1 construct: purchased Millipore (Kinase Profiler service)
Procedure: (§2) Kinase inhibitory potency of SKLB-850 against a number of selected kinases were measured with gold-standard^33 P radio-labeled technology. […] For the remaining 11 kinases tested, SKLB-850 exibited very weak or no activity (IC50 > 10 μM).
(§3) The IC50 values of SKLB-850 for kinase inhibition in vitro were measured by radiometric assays conducted by Kinase Profiler service provided by Millipore as described in Pan’s study.

Src = target: T2, Src (Homo sapiens, UniProt P12931); assay: as above; assay type: biochemical
T2 construct: purchased Millipore (Kinase Profiler service)
T2 sequence (P12931 whole entry): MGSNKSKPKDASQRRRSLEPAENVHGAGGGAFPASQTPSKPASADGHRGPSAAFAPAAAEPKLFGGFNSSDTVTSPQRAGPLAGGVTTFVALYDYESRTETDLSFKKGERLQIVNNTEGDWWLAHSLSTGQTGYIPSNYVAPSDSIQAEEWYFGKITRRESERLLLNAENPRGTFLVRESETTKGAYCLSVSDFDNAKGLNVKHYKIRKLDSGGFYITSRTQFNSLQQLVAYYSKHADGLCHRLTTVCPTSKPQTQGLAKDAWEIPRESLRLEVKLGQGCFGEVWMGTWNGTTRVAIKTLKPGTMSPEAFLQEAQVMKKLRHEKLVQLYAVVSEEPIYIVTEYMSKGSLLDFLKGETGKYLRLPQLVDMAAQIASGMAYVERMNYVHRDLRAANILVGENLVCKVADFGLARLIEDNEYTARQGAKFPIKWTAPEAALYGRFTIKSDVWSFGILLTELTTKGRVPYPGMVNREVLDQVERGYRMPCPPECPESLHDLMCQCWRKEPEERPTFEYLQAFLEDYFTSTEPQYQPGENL
Procedure: as §2, §3

CDK3 = target: T3, CDK3 (Homo sapiens, UniProt Q00526); assay: as above; assay type: biochemical
T3 construct: purchased Millipore (Kinase Profiler service)
T3 sequence (Q00526 whole entry): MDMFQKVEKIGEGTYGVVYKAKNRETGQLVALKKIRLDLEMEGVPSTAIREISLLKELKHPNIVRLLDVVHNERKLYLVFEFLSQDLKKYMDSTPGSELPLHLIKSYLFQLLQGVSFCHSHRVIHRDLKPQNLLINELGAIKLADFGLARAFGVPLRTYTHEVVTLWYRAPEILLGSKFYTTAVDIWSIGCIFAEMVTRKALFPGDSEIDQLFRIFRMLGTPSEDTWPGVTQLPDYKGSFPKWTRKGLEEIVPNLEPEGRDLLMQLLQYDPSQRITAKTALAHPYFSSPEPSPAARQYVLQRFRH
T3 sequence (P24864 whole entry partner): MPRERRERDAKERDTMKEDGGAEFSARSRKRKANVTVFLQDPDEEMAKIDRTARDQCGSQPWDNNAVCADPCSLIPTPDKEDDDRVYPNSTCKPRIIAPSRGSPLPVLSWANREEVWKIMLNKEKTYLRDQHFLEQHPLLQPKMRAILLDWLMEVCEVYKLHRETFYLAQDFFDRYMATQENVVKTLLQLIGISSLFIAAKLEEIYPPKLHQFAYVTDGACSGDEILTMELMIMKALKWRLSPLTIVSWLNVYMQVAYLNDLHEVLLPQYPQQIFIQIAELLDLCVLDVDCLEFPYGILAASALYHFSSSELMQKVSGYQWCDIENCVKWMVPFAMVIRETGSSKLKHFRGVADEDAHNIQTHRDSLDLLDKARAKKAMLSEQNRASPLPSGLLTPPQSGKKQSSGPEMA
Procedure: as §2, §3

EphB3 = target: T4, EphB3 (Homo sapiens, UniProt P54753); assay: as above; assay type: biochemical
T4 construct: purchased Millipore (Kinase Profiler service)
T4 sequence (P54753 34-998): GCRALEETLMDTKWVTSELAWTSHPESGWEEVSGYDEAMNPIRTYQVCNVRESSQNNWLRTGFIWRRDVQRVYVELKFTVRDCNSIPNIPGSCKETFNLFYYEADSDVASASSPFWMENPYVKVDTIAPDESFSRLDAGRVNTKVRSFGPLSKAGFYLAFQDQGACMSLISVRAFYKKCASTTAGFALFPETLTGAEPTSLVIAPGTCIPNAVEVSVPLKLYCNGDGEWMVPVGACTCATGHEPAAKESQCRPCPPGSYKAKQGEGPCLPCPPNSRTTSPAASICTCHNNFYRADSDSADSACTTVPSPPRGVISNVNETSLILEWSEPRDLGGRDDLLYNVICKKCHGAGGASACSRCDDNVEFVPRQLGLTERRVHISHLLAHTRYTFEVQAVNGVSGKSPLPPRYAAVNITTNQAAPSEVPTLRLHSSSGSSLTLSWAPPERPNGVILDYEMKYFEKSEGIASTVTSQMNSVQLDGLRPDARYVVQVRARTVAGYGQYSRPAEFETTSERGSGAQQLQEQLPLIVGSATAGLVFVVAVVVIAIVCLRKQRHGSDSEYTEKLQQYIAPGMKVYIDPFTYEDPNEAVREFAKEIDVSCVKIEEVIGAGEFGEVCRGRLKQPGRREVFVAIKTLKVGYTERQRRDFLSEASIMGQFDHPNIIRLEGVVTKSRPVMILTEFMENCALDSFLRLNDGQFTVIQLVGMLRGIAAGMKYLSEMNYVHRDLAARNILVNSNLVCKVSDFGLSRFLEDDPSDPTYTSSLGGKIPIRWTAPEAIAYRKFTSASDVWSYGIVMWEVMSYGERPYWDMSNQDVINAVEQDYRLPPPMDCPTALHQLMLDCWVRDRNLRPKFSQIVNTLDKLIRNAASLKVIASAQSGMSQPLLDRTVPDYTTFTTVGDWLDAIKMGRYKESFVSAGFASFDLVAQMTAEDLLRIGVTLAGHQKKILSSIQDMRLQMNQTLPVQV
Procedure: as §2, §3

PIP4K2α = target: T5, PIP4K2α (Homo sapiens, UniProt P48426); assay: as above; assay type: biochemical
T5 construct: purchased Millipore (Kinase Profiler service)
T5 sequence (P48426 whole entry): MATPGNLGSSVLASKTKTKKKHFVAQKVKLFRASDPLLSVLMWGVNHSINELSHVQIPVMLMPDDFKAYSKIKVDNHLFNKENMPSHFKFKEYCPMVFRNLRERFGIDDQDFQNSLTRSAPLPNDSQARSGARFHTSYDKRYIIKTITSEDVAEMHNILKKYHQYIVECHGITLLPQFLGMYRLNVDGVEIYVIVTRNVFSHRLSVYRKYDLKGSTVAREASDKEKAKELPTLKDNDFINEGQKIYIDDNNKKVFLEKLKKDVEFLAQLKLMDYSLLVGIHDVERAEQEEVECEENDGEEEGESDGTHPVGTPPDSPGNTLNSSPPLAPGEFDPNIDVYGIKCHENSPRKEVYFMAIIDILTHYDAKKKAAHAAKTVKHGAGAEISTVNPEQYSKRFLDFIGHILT
Procedure: as §2, §3

[1] = Preliminary toxicity evaluation in treated mice; assay type: in vivo
Procedure: A preliminary toxicity evaluation to SKLB-850 was also carried out. […] Besides, toxic pathologic changes in liver, lung, kidney, spleen, and heart were not detected by microscopic examination (Figure 5C).
To investigate potential side effects or toxicity on mice during the treatment, anorexia skin ulceration, weight loss, diarrhea, and toxic death were observed continuously for relevant indexes. The tissues of heart, liver, spleen, lung, and kidney were stained with hematoxylin and eosin (H&E). ALT, AST, BUN and CREA in serum were measured by the National Chengdu Center for Safety Evaluation of Traditional Chinese Medicine using commercially available kits.

[2] = tested on: CCL3 secretion of Ramos cells; assay: ELISA of chemokine secretion after anti-IgM and anti-CD40 stimulation; assay type: cell-based, Human; conditions: anti-IgM and anti-CD40 induced, 0.1μM, 18 hours, n=3, stimulated without compound 3443.00 ± 134.80 pg/mL
Procedure: (§4) We then measured the concentrations of CCL3 and CCL4 in supernatant of Ramos cells cultured in medium, or medium supplemented with anti-IgM and anti-CD40 in the presence or absence of SKLB-850 after 18 hours. CCL3 and CCL4 are chemokines, which appear to correlate with the signaling capacity of the BCR [26]. As shown in Figure 3A and 3B, SKLB-850 inhibited the increased secretion of CCL3 and CCL4 stimulated by anti-IgM and anti-CD40. The mean CCL3 and CCL4 concentrations in supernatants of Ramos cells after anti-IgM and CD40 stimulation were 3443.00 ± 134.80 pg/mL and 134.80 ± 1.90 pg/mL, respectively.
(§5) To evaluate the effect of SKLB-850 on CCL3 and CCL4 secretion after stimulation of Ramos cells with anti-IgM (30 μg/ml) and anti-CD40 (10 μg/ml), chemokine levels were measured in supernatants of activated BCL cells, as previously described. After 18 hours of anti-IgM and anti-CD40 co-culture, supernatants were harvested and assayed for CCL3 and CCL4 by quantitative enzyme-linked immunosorbent assays according to the manufacturer’s instructions (Quantikine, R&D Systems, Minneapolis, MN, USA).

[3] = tested on: CCL4 secretion of Ramos cells; assay: as above; assay type: cell-based, Human; conditions: anti-IgM and anti-CD40 induced, 0.1μM, 18 hours, n=3, stimulated without compound 134.80 ± 1.90 pg/mL
Procedure: as §4, §5

[4] = tested on: CD184 expression of Ramos cells; assay: CD184 (CXCR4) surface expression by flow cytometry; assay type: cell-based, Human
Procedure: as §1
The expression of surface molecules was analyzed by flow cytometry, using the following monoclonal antibody CD184 (CXCR4), and the relevant isotype controls mAbs (BD biosciences). A total of 10^6 mononuclear cells were incubated for 30 minutes at 4°C with saturating concentrations of mAbs, and the cells were washed twice and analyzed with a flow cytometer (BD FACSCalibur, BD, USA).

[5] = tested on: Ki67 and CD20 in Ramos tumor tissues; assay: Immunohistochemistry of Ki67 and CD20 in tumor tissues from the Ramos model; assay type: in vivo, NOD/SCID mice; conditions: mouse tumor tissues
From the text: The ability of inducing apoptosis of SKLB-850 in tumor tissues was examined by TUNEL. […] We then examined apoptotic tumor cells in B-cell lymphoma samples from BCL patients after SKLB-850 treatment by FCM. As shown in Figure 6C and 6F, SKLB-850 induced cell apoptosis (14.10 ± 4.04%), and R788 had the same effect but relatively weak (7.60 ± 0.52%). To better understand the mechanism of antitumor activities in vivo, Ki67 and CD20 in mouse tumor tissues were detected by immunohischemistry; Ki67 was a marker of proliferation in the diagnosis of tumors and CD20 was highly expressed in B cell lymphomas.
Paraffin sections from each group were stained with hematoxylineosin (H&E). For immunohistochemistry studies, tumor tissues in the Ramos model were performed and the following antibodies were used: phospho-Src (Cell Signaling Technology, 1:100), phospho-FAK (Cell Signaling Technology, 1:100), phospho-Stat3 (Cell Signaling Technology, 1:100), NF-κB p-65(Cell Signaling Technology, 1:100) and phospho-Syk (Cell Signaling Technology, 1:100). Additionally, Rat anti-mouse CD31 antibody (BD Biosciences, USA) and anti-Ki67 antibody (Gene Tech) were used to determine vessel density and cell proliferation following the manufacturer’s protocol, respectively. A DAKO polymer secondary antibody system (Dako Envision 1K4007) was used for secondary detection. […]

[6] = tested on: Syk, Src/FAK, JAK2/STAT3 and NF-κB p65 phosphorylation in Ramos tumor tissues; assay: Immunohistochemistry of phospho-proteins in tumor tissues from the Ramos tumor model; assay type: in vivo, NOD/SCID mice
Procedure: To understand the mechanism of antitumor activities in vivo, pivotal protein activities of Syk/ERK, Src/FAK and JAK2/STAT3 signaling pathways were detected by Western blot analysis. […] Immunohistochemistry assays were performed using tumor tissues isolated from the Ramos tumor model at the end of treatment.
Paraffin sections from each group were stained with hematoxylineosin (H&E). For immunohistochemistry studies, tumor tissues in the Ramos model were performed and the following antibodies were used: phospho-Src (Cell Signaling Technology, 1:100), phospho-FAK (Cell Signaling Technology, 1:100), phospho-Stat3 (Cell Signaling Technology, 1:100), NF-κB p-65(Cell Signaling Technology, 1:100) and phospho-Syk (Cell Signaling Technology, 1:100). Additionally, Rat anti-mouse CD31 antibody (BD Biosciences, USA) and anti-Ki67 antibody (Gene Tech) were used to determine vessel density and cell proliferation following the manufacturer’s protocol, respectively. A DAKO polymer secondary antibody system (Dako Envision 1K4007) was used for secondary detection. Images were captured using an Olympus digital camera.

Compound: CN1CCN(c2ccc(Nc3ncc(F)c(Nc4ccc(Cl)cc4C(N)=O)n3)cc2)CC1 [SKLB-850, 5-chloro-2-((5-fluoro-2-((4-(4-methylpiperazin-1-yl)phenyl)amino)pyrimidin-4-yl)amino) benzamide]
- Ramos cell chemotaxis toward CXCL12 (in words) (Ramos cells): reduced the percentage of Ramos cell chemotaxis toward CXCL12
- pIC50 (PKCα): < 5.00
- pIC50 (Src): 7.60
- pIC50 (CDK3): < 5.00
- pIC50 (EphB3): < 5.00
- pIC50 (PIP4K2α): < 5.00
- toxic pathologic changes in liver, lung, kidney, spleen, and heart (H&E, in words) ([1]; microscopic examination): not detected
- mouse body weight (in words) ([1]; treated groups, monitored once every three days): no significant differences in weights
- levels of ALT, AST, BUN, and CREA of serum (in words) ([1]; treated mice): no obvious changes
- CCL3 level in supernatant [2]: 2303.10 ± 109.40 pg/mL
- CCL4 level in supernatant [3]: 15.20 ± 0.30 pg/mL
- expression of CD184 (in words) [4]: decreased the expression of CD184
- CD20 expression (in words) [5]: significant reduction
- Ki67 expression (in words) [5]: significant reduction
- phosphorylation of NF-κB p65 (in words) ([6]; tumor tissues from the Ramos tumor model): inhibited
- phosphorylations of Syk, Src/FAK and JAK2/STAT3 (in words) ([6]; tumor tissues from the Ramos tumor model at the end of treatment): inhibited
